Reference: ChEMBL document CHEMBL1933058, “5-(2-amino-pyrimidin-4-yl)-1H-pyrrole and 2-(2-amino-pyrimidin-4-yl)-1,5,6,7-tetrahydro-pyrrolo[3,2-c]pyridin-4-one derivatives as new classes of selective and orally available Polo-like kinase 1 inhibitors” (Bioorg Med Chem Lett, 2012)

Columns and labels:
[1] = target: Serine/threonine-protein kinase PLK1 (Homo sapiens, UniProt P53350); experiment: Inhibition of PLK1
[2] = target: Serine/threonine-protein kinase PLK2 (Homo sapiens, UniProt Q9NYY3); experiment: Inhibition of PLK2
Serine/threonine-protein kinase PLK2, sequence (Q9NYY3 whole entry): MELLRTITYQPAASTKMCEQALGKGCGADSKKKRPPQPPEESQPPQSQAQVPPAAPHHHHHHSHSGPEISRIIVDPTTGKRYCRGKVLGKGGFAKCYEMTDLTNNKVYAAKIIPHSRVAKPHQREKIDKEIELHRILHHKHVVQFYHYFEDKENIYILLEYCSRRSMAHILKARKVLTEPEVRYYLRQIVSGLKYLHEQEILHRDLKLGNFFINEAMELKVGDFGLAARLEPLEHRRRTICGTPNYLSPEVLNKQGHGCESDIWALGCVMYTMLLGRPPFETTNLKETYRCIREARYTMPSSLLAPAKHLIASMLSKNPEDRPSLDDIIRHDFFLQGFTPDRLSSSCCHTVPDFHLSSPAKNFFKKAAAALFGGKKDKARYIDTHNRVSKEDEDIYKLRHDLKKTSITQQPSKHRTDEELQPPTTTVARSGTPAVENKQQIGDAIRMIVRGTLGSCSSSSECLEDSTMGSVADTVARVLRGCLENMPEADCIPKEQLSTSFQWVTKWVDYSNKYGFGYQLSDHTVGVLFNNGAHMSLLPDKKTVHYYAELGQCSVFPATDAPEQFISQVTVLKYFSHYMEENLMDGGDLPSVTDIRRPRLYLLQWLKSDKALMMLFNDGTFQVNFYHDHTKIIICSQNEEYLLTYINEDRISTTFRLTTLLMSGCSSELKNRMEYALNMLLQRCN

[3] = target: Serine/threonine-protein kinase PLK3 (Homo sapiens, UniProt Q9H4B4); experiment: Inhibition of PLK3
Serine/threonine-protein kinase PLK3, sequence (Q9H4B4 whole entry): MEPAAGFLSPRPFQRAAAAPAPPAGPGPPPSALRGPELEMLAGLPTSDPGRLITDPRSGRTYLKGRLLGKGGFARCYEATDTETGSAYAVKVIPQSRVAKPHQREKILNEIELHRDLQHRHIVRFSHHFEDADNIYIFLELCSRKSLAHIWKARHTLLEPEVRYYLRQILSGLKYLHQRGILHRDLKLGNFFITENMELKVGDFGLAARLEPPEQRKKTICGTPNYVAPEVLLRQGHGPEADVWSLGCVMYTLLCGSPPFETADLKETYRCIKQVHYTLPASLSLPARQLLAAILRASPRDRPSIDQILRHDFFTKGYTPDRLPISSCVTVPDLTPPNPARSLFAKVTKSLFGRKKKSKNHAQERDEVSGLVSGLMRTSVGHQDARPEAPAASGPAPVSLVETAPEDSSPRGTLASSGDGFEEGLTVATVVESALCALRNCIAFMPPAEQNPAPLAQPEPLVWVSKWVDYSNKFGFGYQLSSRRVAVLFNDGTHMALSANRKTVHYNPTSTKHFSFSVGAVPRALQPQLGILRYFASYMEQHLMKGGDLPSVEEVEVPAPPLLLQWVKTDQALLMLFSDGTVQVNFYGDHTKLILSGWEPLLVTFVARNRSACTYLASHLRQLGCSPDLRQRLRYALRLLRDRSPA

[4] = target: Cyclin-dependent kinase 2/cyclin A (Homo sapiens, UniProt P24941); experiment: Inhibition of CDK2/cyclin A; assay type: protein-complex assay
Aurora kinase A = target: T1, Aurora kinase A (Homo sapiens, UniProt O14965); experiment: Inhibition of Aurora-A
T1 sequence (O14965 whole entry): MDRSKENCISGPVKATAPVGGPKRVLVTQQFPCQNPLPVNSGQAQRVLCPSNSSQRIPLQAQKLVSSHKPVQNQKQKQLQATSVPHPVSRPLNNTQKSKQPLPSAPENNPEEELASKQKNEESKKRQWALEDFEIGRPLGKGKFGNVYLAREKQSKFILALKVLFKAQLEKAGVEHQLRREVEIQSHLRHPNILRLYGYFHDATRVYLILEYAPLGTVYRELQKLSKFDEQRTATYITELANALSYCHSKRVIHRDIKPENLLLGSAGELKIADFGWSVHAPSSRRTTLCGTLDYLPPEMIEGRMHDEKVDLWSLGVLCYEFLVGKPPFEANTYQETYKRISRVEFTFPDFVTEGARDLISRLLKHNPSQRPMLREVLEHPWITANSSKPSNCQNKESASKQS

A2780 = experiment: Antiproliferative activity against human A2780 cells; assay type: functional, cell-based

Serine/threonine-protein kinase PLK1, sequence (P53350 whole entry): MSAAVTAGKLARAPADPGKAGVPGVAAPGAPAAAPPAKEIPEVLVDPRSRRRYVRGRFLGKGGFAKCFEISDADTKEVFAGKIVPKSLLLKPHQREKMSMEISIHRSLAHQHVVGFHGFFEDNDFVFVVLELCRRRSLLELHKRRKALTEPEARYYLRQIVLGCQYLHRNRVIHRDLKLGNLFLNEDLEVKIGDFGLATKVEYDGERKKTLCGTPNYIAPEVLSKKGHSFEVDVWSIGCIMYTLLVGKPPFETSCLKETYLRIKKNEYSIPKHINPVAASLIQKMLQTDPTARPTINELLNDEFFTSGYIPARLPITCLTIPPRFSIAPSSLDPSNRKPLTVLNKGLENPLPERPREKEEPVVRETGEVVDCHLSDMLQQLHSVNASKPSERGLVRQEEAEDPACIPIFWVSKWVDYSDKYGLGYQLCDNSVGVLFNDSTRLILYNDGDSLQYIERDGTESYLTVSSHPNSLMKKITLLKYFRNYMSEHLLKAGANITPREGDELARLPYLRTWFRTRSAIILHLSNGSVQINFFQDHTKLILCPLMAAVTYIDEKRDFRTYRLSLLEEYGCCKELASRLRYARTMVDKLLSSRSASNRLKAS

Compound	IC50 [1]	IC50 [2]	IC50 [3]	IC50 [4]	IC50 (Aurora kinase A)	IC50 (A2780)
Nc1nccc(-c2cc3c([nH]2)CCNC3=O)n1	1130 nM			219 nM	> 10000 nM	1530 nM
NC(=O)c1c[nH]c(-c2ccnc(N)n2)c1	> 10000 nM			> 10000 nM	> 10000 nM	

Now those with a lower IC50 [1], led by results:

IC50 [1]	IC50 [2]	IC50 [3]	IC50 [4]	IC50 (Aurora kinase A)	IC50 (A2780)	Compound
102 nM	> 10000 nM	> 10000 nM	> 10000 nM	> 10000 nM	722 nM	CN1CCN(c2ccc(OC(F)(F)F)c(Nc3nccc(-c4cc5c(n4CCO)CCNC5=O)n3)c2)CC1
18 nM	> 10000 nM	> 10000 nM	> 10000 nM	> 10000 nM	610 nM	Cn1cc(C(N)=O)cc1-c1ccnc(Nc2cc(N3CCNCC3)ccc2OC(F)(F)F)n1
28 nM	> 10000 nM	> 10000 nM	> 10000 nM	> 10000 nM	62 nM	CN1CCN(c2ccc(OC(F)(F)F)c(Nc3nccc(-c4cc5c(n4CC(F)(F)F)CCNC5=O)n3)c2)CC1
817 nM	> 10000 nM	> 10000 nM	> 10000 nM	> 10000 nM	176 nM	CN1CCN(c2ccc(OC(F)(F)F)c(Nc3nccc(-c4cc5c(n4C)CCN(C(=O)OC(C)(C)C)C5=O)n3)c2)CC1
